# Data as given in US6107288A, “Antiviral nucleoside combination” (priority 1991, dated 2000).
# Several values for one entry are separate records, joined by “and”; a condition that tells them apart may be missing. Equal values may be shown once. Read-outs that look alike come from different tables or passages of the source.
# Test system: HIV
# Format: cell-based
# Procedure: Combinations according to the invention were tested for anti-HIV activity in an HIV-infected MT4 cell assay as described in Averett, D. R., J. Virol. Methods, 23, 263-276 (1989). The cells were exposed to HIV for one hour prior to addition of antiviral component(s). Components were tested in serial 2.5-fold dilutions. After five days of incubation at 37° C., the cell number was determined. Inhibition of HIV-induced cytopathic effect was calculated, and synergism was determined by FIC plots as described by Elion, Singer, and Hitchings, J. Biol. Chem. 208, 477 (1954).
# The fractional inhibitor concentrations (FIC) of zidovudine and cis-1-(2-(hydroxymethyl)-1,3-oxathiolan-5-yl)-5-fluorocytosine were calculated according to the method of Elion et al., supra (Table 1).
SMILES,Fractional Inhibitor Concentration (FIC),"Fractional Inhibitor Concentration (FIC) (70% inhibition, combination of zidovudine 0.004 with Compound 1 2.5)","Fractional Inhibitor Concentration (FIC) (70% inhibition, combination of zidovudine 0.01 with Compound 1 2.0)","Fractional Inhibitor Concentration (FIC) (70% inhibition, combination of zidovudine 0.0256 with Compound 1 1.6)","Fractional Inhibitor Concentration (FIC) (70% inhibition, combination of zidovudine 0.06 with Compound 1 1.4)"
"Nc1nc(=O)n([C@@H]2CS[C@H](CO)O2)cc1F (relative stereo) [Compound 1, cis1-(2-(hydroxymethyl)-1,3-oxathiolan-5-yl)-5-fluorocytosine]",0.48 and 0.38 and 0.31 and 0.26,–,–,–,–
"Cc1cn([C@H]2C[C@H](N=[N+]=[N-])[C@@H](CO)O2)c(=O)[nH]c1=O [Zidovudine, 3'-azido-3'-deoxythymidine]",–,0.018,0.045,0.12,0.27
